Measurements reported in PubChem BioAssay AID1963959 (Molecular Pharmacology Branch, DTP, NCI, 2024).

Test system: T-47D spheroids with HUVEC/MSC, viability
Assay: Anticancer human tumor T-47D cell line growth inhibition [PI3K];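 also: spheroids exposed to agents for seven days before reading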;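 as to viability, T/C: percent of DMSO vehicle control luminescence so 100% = untreated growth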
Details: for IC50: curve of first compound; for viability, T/C: stronger effect = lower value; active = viability on the fitted dose curve at most 10% of control; inactive = the rest
How it was run: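 Targeted small molecules plus PI3K inhibitors, half-log dose series from Cmax (default top 10 microM), were applied to heterotypic spheroids of cancer cells with HUVEC and MSCs. Viability indicated growth inhibition.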

[1] = second compound 0.00316 µM, first compound 0.0316 µM
[2] = second compound 0.00316 µM, first compound 0.1 µM
[3] = second compound 0.00316 µM, first compound 0.316 µM
[4] = second compound 0.00316 µM, first compound 1 µM
[5] = second compound 0.00316 µM, first compound 3.16 µM
[6] = second compound 0.00316 µM, first compound 10 µM
[7] = second compound 0.01 µM, first compound 0.0316 µM
[8] = second compound 0.01 µM, first compound 0.1 µM
[9] = second compound 0.01 µM, first compound 0.316 µM
[10] = second compound 0.01 µM, first compound 1 µM
[11] = second compound 0.01 µM, first compound 3.16 µM
[12] = second compound 0.01 µM, first compound 10 µM
[13] = second compound 0.0316 µM, first compound 0.0316 µM
[14] = second compound 0.0316 µM, first compound 0.1 µM
[15] = second compound 0.0316 µM, first compound 0.316 µM
[16] = second compound 0.0316 µM, first compound 1 µM
[17] = second compound 0.0316 µM, first compound 3.16 µM
[18] = second compound 0.0316 µM, first compound 10 µM
[19] = second compound 0.1 µM, first compound 0.0316 µM
[20] = second compound 0.1 µM, first compound 0.1 µM
[21] = second compound 0.1 µM, first compound 0.316 µM
[22] = second compound 0.1 µM, first compound 1 µM
[23] = second compound 0.1 µM, first compound 3.16 µM
[24] = second compound 0.1 µM, first compound 10 µM
[25] = second compound 0.316 µM, first compound 0.0316 µM
[26] = second compound 0.316 µM, first compound 0.1 µM
[27] = second compound 0.316 µM, first compound 0.316 µM
[28] = second compound 0.316 µM, first compound 1 µM
[29] = second compound 0.316 µM, first compound 3.16 µM
[30] = second compound 0.316 µM, first compound 10 µM
[31] = second compound 1 µM, first compound 0.0316 µM
[32] = second compound 1 µM, first compound 0.1 µM
[33] = second compound 1 µM, first compound 0.316 µM
[34] = second compound 1 µM, first compound 1 µM
[35] = second compound 1 µM, first compound 3.16 µM
[36] = second compound 1 µM, first compound 10 µM

C#Cc1c(F)ccc2cc(O)cc(-c3ncc4c(N5CC6CCC(C5)N6)nc(OCC56CCCN5CC(F)C6)nc4c3F)c12 (stereo not drawn) + COc1c(OCCCN2CCOCC2)ccc2c3n(c(=NC(=O)c4cnc(N)nc4)nc12)CCN3
inactive: viability, T/C [1] 102% | viability, T/C [2] 93.1% | viability, T/C [3] 93% | viability, T/C [4] 82.5% | viability, T/C [5] 116% | viability, T/C [6] 109% | viability, T/C [7] 95.1% | viability, T/C [8] 99.9% | viability, T/C [9] 105% | viability, T/C [10] 99.5% | viability, T/C [11] 114% | viability, T/C [12] 111% | viability, T/C [13] 80.5% | viability, T/C [14] 78.8% | viability, T/C [15] 79.8% | viability, T/C [16] 84.8% | viability, T/C [17] 79.2% | viability, T/C [18] 87.5% | viability, T/C [19] 45.1% | viability, T/C [20] 46.4% | viability, T/C [21] 46.8% | viability, T/C [22] 49.2% | viability, T/C [23] 39.6% | viability, T/C [24] 49.5% | viability, T/C [25] 20.2% | viability, T/C [26] 14.5% | viability, T/C [27] 20.5% | viability, T/C [28] 22.3% | viability, T/C [29] 22.3% | viability, T/C [30] 27.1%
> 10 µM: IC50 (second compound 0.00316 µM) | IC50 (second compound 0.01 µM) | IC50 (second compound 0.0316 µM)
active: viability, T/C [31] 7.11% | viability, T/C [32] 6.61% | viability, T/C [33] 8.19% | viability, T/C [34] 8.13% | viability, T/C [35] 5.78% | viability, T/C [36] 9.52%
< 0.0316 µM: IC50 (second compound 0.1 µM) | IC50 (second compound 0.316 µM) | IC50 (second compound 1 µM)

CC(Cn1ccc(-c2ccc(C#N)c(Cl)c2)n1)NC(=O)c1cc(C(C)O)[nH]n1 (stereo not drawn) + COc1c(OCCCN2CCOCC2)ccc2c3n(c(=NC(=O)c4cnc(N)nc4)nc12)CCN3
inactive: viability, T/C [1] 89% | viability, T/C [2] 96% | viability, T/C [3] 96.1% | viability, T/C [4] 88% | viability, T/C [5] 104% | viability, T/C [6] 75.3% | viability, T/C [7] 103% | viability, T/C [8] 83.3% | viability, T/C [9] 101% | viability, T/C [10] 93.5% | viability, T/C [11] 95.4% | viability, T/C [12] 59.5% | viability, T/C [13] 69.2% | viability, T/C [14] 77.4% | viability, T/C [15] 74.7% | viability, T/C [16] 82.1% | viability, T/C [17] 79% | viability, T/C [18] 45.7% | viability, T/C [19] 38.9% | viability, T/C [20] 39.2% | viability, T/C [21] 41.5% | viability, T/C [22] 45.7% | viability, T/C [23] 40.7% | viability, T/C [24] 33.9% | viability, T/C [25] 14.8% | viability, T/C [26] 15.9% | viability, T/C [27] 15.3% | viability, T/C [28] 14.4% | viability, T/C [29] 18.7% | viability, T/C [30] 20.4%
active: viability, T/C [31] 8.77% | viability, T/C [32] 8.22% | viability, T/C [33] 7.63% | viability, T/C [34] 5.85% | viability, T/C [35] 7.24% | viability, T/C [36] 3.67%
8.44 µM: IC50 (second compound 0.0316 µM)
< 0.0316 µM: IC50 (second compound 0.1 µM) | IC50 (second compound 0.316 µM) | IC50 (second compound 1 µM)
> 10 µM: IC50 (second compound 0.00316 µM) | IC50 (second compound 0.01 µM)

CC1(C)CCC(Nc2ncc(C(F)(F)F)c(-c3c[nH]c4c(P(C)(C)=O)c(C#N)ccc34)n2)CN1 (stereo not drawn) + COc1c(OCCCN2CCOCC2)ccc2c3n(c(=NC(=O)c4cnc(N)nc4)nc12)CCN3
inactive: viability, T/C [1] 70.8% | viability, T/C [2] 60.4% | viability, T/C [3] 68% | viability, T/C [4] 74.5% | viability, T/C [5] 77.7% | viability, T/C [6] 57.5% | viability, T/C [7] 67.6% | viability, T/C [8] 62.4% | viability, T/C [9] 55.2% | viability, T/C [10] 50.2% | viability, T/C [11] 73.8% | viability, T/C [12] 46% | viability, T/C [13] 44.3% | viability, T/C [14] 42.6% | viability, T/C [15] 42.8% | viability, T/C [16] 38.8% | viability, T/C [17] 46.9% | viability, T/C [18] 14.1% | viability, T/C [19] 28% | viability, T/C [20] 33.8% | viability, T/C [21] 28.8% | viability, T/C [22] 29.8% | viability, T/C [23] 26.5% | viability, T/C [24] 8.25% | viability, T/C [25] 20% | viability, T/C [26] 24.4% | viability, T/C [27] 15.6% | viability, T/C [28] 19.1% | viability, T/C [29] 17.4% | viability, T/C [31] 8.6%
> 10 µM: IC50 (second compound 0.00316 µM) | IC50 (second compound 0.01 µM)
active: viability, T/C [30] 3.95% | viability, T/C [32] 12.8% | viability, T/C [33] 8.27% | viability, T/C [34] 7.59% | viability, T/C [35] 10.4% | viability, T/C [36] 2.66%
< 0.0316 µM: IC50 (second compound 0.0316 µM) | IC50 (second compound 0.1 µM) | IC50 (second compound 0.316 µM) | IC50 (second compound 1 µM)

Cn1cnc2c(F)c(Nc3ccc(Br)cc3Cl)c(C(=O)NOCCO)cc21 + Cc1nc(NC(=O)N2CCCC2C(N)=O)sc1-c1ccnc(C(C)(C)C(F)(F)F)c1
< 0.00949 µM: IC50 (second compound 10 µM)
inactive: viability, T/C (second compound 0.0316 µM, first compound 0.00949 µM) 118% | viability, T/C (second compound 0.0316 µM, first compound 0.03 µM) 93.1% | viability, T/C (second compound 0.0316 µM, first compound 0.0949 µM) 92.6% | viability, T/C (second compound 0.0316 µM, first compound 0.3 µM) 85.5% | viability, T/C (second compound 0.0316 µM, first compound 0.949 µM) 93.1% | viability, T/C (second compound 0.0316 µM, first compound 3 µM) 105% | viability, T/C (second compound 0.1 µM, first compound 0.00949 µM) 94.9% | viability, T/C (second compound 0.1 µM, first compound 0.03 µM) 96.7% | viability, T/C (second compound 0.1 µM, first compound 0.0949 µM) 85.7% | viability, T/C (second compound 0.1 µM, first compound 0.3 µM) 96.1% | viability, T/C (second compound 0.1 µM, first compound 0.949 µM) 84.9% | viability, T/C (second compound 0.1 µM, first compound 3 µM) 92.3% | viability, T/C (second compound 0.316 µM, first compound 0.00949 µM) 97.4% | viability, T/C (second compound 0.316 µM, first compound 0.03 µM) 102% | viability, T/C (second compound 0.316 µM, first compound 0.0949 µM) 92.6% | viability, T/C (second compound 0.316 µM, first compound 0.3 µM) 91.2% | viability, T/C (second compound 0.316 µM, first compound 0.949 µM) 95.5% | viability, T/C (second compound 0.316 µM, first compound 3 µM) 92.3% | viability, T/C (second compound 1 µM, first compound 0.00949 µM) 88.2% | viability, T/C (second compound 1 µM, first compound 0.03 µM) 81.3% | viability, T/C (second compound 1 µM, first compound 0.0949 µM) 96.2% | viability, T/C (second compound 1 µM, first compound 0.3 µM) 93.4% | viability, T/C (second compound 1 µM, first compound 0.949 µM) 85.8% | viability, T/C (second compound 1 µM, first compound 3 µM) 96% | viability, T/C (second compound 3.16 µM, first compound 0.00949 µM) 77% | viability, T/C (second compound 3.16 µM, first compound 0.03 µM) 67.8% | viability, T/C (second compound 3.16 µM, first compound 0.0949 µM) 65.4% | viability, T/C (second compound 3.16 µM, first compound 0.3 µM) 65.5% | viability, T/C (second compound 3.16 µM, first compound 0.949 µM) 66.8% | viability, T/C (second compound 3.16 µM, first compound 3 µM) 72.2% | viability, T/C (second compound 10 µM, first compound 0.00949 µM) 36.7% | viability, T/C (second compound 10 µM, first compound 0.03 µM) 38.9% | viability, T/C (second compound 10 µM, first compound 0.0949 µM) 41.8% | viability, T/C (second compound 10 µM, first compound 0.3 µM) 37.7% | viability, T/C (second compound 10 µM, first compound 0.949 µM) 39.6% | viability, T/C (second compound 10 µM, first compound 3 µM) 36.6%
> 3 µM: IC50 (second compound 0.0316 µM) | IC50 (second compound 0.1 µM) | IC50 (second compound 0.316 µM) | IC50 (second compound 1 µM) | IC50 (second compound 3.16 µM)
